Source: US20250339531A1, “DUX4 POLYPEPTIDES AND NUCLEIC ACIDS FOR TREATING INFLAMMATORY AND AUTOIMMUNE CONDITIONS” (Fred Hutchinson Cancer Center, priority 2021, published 2025)
“Also recorded” adds a separate entry of the source. Where a SMILES comes first, the peptide text is derived from it. The star is where a group is joined. Cbz = O=C(OCc1ccccc1)*

Assays:
[1] = tested on: MHC-I, PSMB8, PSMB9, and PSMB10; experiment: Immunoblot of IFNG-induced MHC-I and immunoproteasome protein in MB135 myoblasts treated with inhibitors; type: cell-based, human; conditions: MB135iDUX4 cells, data not shown
[2] = tested on: MHC-I, PSMB8, PSMB9, and PSMB10; experiment: as above; type: cell-based, human; conditions: MB135 myoblasts without DUX4 induction, agent then IFNG 16 h; 4EGI-1 at 50 uM
Procedure: To test if mTOR inactivation was sufficient to block MHC-I and immunoproteasome protein levels in the absence of DUX4, parental MB135 myoblasts were treated with mTOR inhibitors everolimus or Torin2. Everolimus is a second-generation rapamycin analog with binding specificity for mTORC1. […] To further validate the role of 4EBP1 in blocking MHC-I and immunoproteasome protein expression, MB135 cells were treated with 4EGI-1, a small molecule that pharmacologically mimics 4EBP function and inhibits eIF4E.
(§1) Protein samples were harvested in RIPA buffer [150 mM NaCl, 1% NP-40, 0.5% Na-deocycholate, 1% SDS, 25 mM Tris-HCl pH7.4] supplemented with protease and phosphatase inhibitor tablets (Pierce), followed by sonication in Diagenode Bioruptor. Lysate was cleared by centrifugation at 16000×g and quantified using a Pierce BCA assay (Thermo Fisher Scientific). Samples were run on NuPAGE precast polyacrylamide gels (Invitrogen) and transferred to PVDF membrane. Membranes were blocked in PBS containing 0.1% Tween-20 and 5% non-fat dry milk before overnight incubation at 4° C. with primary antibodies (see resource table for a list of antibodies used in this study). Membranes were incubated with horseradish peroxidase-conjugated secondary antibodies for 1 hour at room temperature and SuperSignal chemiluminescent substrate (Thermo Scientific) was used for detection on film with a Mini-medical 90 processor. Membranes were stripped with Restore Western Blot Stripping Buffer (Pierce).

HLA-E = experiment: Immunoblot of non-canonical MHC class I HLA-E; type: cell-based, human; conditions: MB135iDUX4 cells
Procedure: as §1

[3] = tested on: de novo protein synthesis; experiment: [35S]-methionine/cysteine metabolic labeling of nascent protein synthesis; type: cell-based; conditions: human myoblasts, 20-92 h after 4 h doxycycline pulse
Procedure: Cells were treated with and without a 4-hour pulse of doxycycline. Eight hours prior to harvest, cells were incubated in DMEM depleted for methionine and cysteine (Gibco) supplemented with 90 microcurie 35S-methionine/cysteine (Perkin Elmer) and 50 ng/ml […] (R&D Systems). Protein samples were harvested in RIPA buffer [150 mM NaCl, 1% NP-40, 0.5% Na-deocycholate, 1% SDS, 25 mM Tris-HCl pH7.4] supplemented with protease and phosphatase inhibitor tablets (Pierce), followed by sonication in Diagenode Bioruptor. Lysate was cleared by centrifugation at 16000×g and quantified using a Pierce BCA assay (Thermo Scientific). Samples were run on NuPAGE precast polyacrylamide gels (Invitrogen). Gels were stained with InstantBlue Coomassie (Abcam) following manufacturer protocol, placed on whatman paper, wrapped in plastic wrap, and dried. Gels were exposed to phosphor screen, imaged on Typhoon Trio imager, and analyzed with ImageQuant.

ISG induction by IFNG = experiment: RNA-seq of IFNG-induced genes in MB135 cells; type: cell-based, human; conditions: genes induced by IFNG (log 2 fold-change >3), doxycycline + IFNG
Procedure: RNA was extracted as described above from untreated, doxycycline-treated, IFNγ-treated, or doxycycline- and IFNγ-treated samples. RNA was submitted to the Fred Hutchinson Cancer Research Center Genomics Core for library preparation using the TruSeq3 Stranded mRNA kit (Illumina) followed by size and quality analysis by Tapestation (Agilent). Libraries were sequenced on a NextSeq P2-100 (Illumina).
Sequencing analysis was performed using R version 4.0.3 (R Core Team, 2020). Sequencing reads were trimmed using Trimmomatic (version 0.39) (Bolger et al., 2014, Trimmomatic: a flexible trimmer for Illumina sequence data. Bioinformatics 30, 2114-2120), and aligned to the Homo sapiens GRCh38 reference genome with the Rsubread aligner (Liao et al., 2019, The R package Rsubread is easier, faster, cheaper and better for alignment and quantification of RNA sequencing reads. Nucleic Acids Res 47, e47). Gene counts were analyzed using featureCounts (v2.0.1) (Liao et al., 2019, supra) and the Gencode v35 annotation file. Normalization and differential expression analysis were done with DESeq2 (v1.26.0) (Love et al., 2014, Moderated estimation of fold change and dispersion for RNA-seq data with DESeq2. Genome Biol 15, 550).

[4] = tested on: interferon-stimulated genes IFIH1, ISG20, CXCL9, and CD74; experiment: IFNG induction of interferon-stimulated genes, RT-qPCR in MB135 cells with doxycycline-inducible transgenes; type: cell-based, human; conditions: MB135 cells, doxycycline-induced transgene, continuous protocol, IFNG 16 h
Procedure: (§2) All myoblast experiments were conducted in immortalized MB135 or MB200 myoblast cell lines (isolated from a control or FSHD2 subject, respectively cultured in Ham's F-10 Nutrient Mix (Gibco) supplemented with 15% fetal bovine serum (Hyclone), 100 U/100 μg/ml penicillin/streptomycin (Gibco), 1 μM dexamethasone (Sigma), and 10 ng/ml recombinant human basic fibroblast growth factor (PeproTech). To differentiate the myoblasts to myotubes, media was changed to DMEM supplemented with 10 μg/ml insulin (Sigma) and 10 μg/ml transferrin (Sigma). Cell lines containing doxycycline-inducible transgenes were additionally cultured with 2 μg/mL puromycin (Sigma). Transgenes were induced with 1 μg/mL of doxycycline (Sigma) for 4 hours prior to other treatments for a total of 20 hrs. The Kitra-SRS cells (RRID:CVCL_YI69) were provided by Dr. H. Otani and Osaka University (Nakai et al., 2019) and were cultured in DMEM supplemented with 10% fetal bovine serum (Hyclone) and 100 U/100 μg/ml penicillin/streptomycin (Gibco). Biological replicates consisted of independent but parallel experiments, such as simultaneously stimulating three cell culture plates with IFNγ. Technical replicates consisted of repeat measurements of the same biological sample, such as loading the same biological sample in triplicate for analysis by RT-qPCR.
(§3) Myoblasts were transfected with either (final concentrations) 10 μM 2′,3′-cGAMP (Sigma Aldrich), 2 μg/mL poly(I:C) (Invitrogen), or 1 μg/mL 3′ppp-dsRNA RIG-I ligand (Dan Stetson Lab, UW) using Lipofectamine 2000 according to manufacturer's protocol, or were stimulated with 1000U IFNβ (PeproTech) or 200 ng/ml IFNγ (R+D Systems) by addition directly to cell culture medium. After 16 hours of immune stimulation, RNA was collected from cells using the NucleoSpin RNA Kit (Macherey-Nagel) according to manufacturer's instructions. RNA samples were quantified by nanodrop and 1 μg of RNA per sample was treated with DNase I Amplification Grade (Thermo Fisher), and then synthesized into cDNA using the Superscript IV First-Strand Synthesis System, including oligo dT primers (Invitrogen). qPCR was run in 384-well plates on an Applied Biosystems QuantStudio 6 Flex Real-Time PCR System (ABI) and analyzed in Microsoft Excel.

[5] = tested on: MHC class I proteins (HLA-A/B/C); experiment: Immunoblot of IFNG-induced MHC class I protein, continuous or pulsed protocol, MB135 myoblasts; type: cell-based, human; conditions: MB135 cells; for suppression of IFNG-induced MHC class I protein, pulsed protocol: 4 h doxycycline pulse, IFNG added later for 16 h; for suppression of IFNG-induced MHC class I protein, continuous protocol: doxycycline 20 h, IFNG last 16 h
Procedure: (§4) In the “continuous” protocol (similar to the experiments shown in the prior FIGS. 1, 2, 4, 5, and 6), doxycycline is added to induce DUX4 expression at time 0 and four hours later IFNG is added for an additional 16 hours, resulting in 20 hours of continuous DUX4 induction with the last 16 hrs exposed to IFNG.
(§5) In the “pulsed” protocol, doxycycline is added at time 0 to induce DUX4 expression, but after four hours the media is changed to remove the doxycycline, resulting in a pulse of DUX4 mRNA and protein sufficient to induce DUX4 target gene expression (see Resnick et al., Cell Rep. 2019 Nov. 12; 29(7):1812-1820.e5). IFNG is added at 28 hours for a period of 16 hours prior to harvesting the cells. […] This difference is not likely to be due to different amounts of the DUX4 and mutant DUX4 proteins because at the time of harvest both DUX4 and the F67A mutant DUX4 protein levels have declined to similarly low amounts relative to the continuous protocol, but could be due to the activation of DUX4 target genes by the full-length DUX4 since the H3.X/Y proteins show persistent expression in the pulsed protocol.
as §1

H3.X/Y = experiment: Immunoblot of DUX4 target H3.X/Y proteins; type: cell-based, human; conditions: MB135 cells, continuous or pulsed protocol
Procedure: as §1

ZSCAN4 = experiment: Activation of DUX4 target gene ZSCAN4, RT-qPCR; type: cell-based, human; conditions: MB135 cells ± doxycycline
Procedure: as §2, §3

[6] = tested on: immunoproteasome subunits PSMB8, PSMB9, and PSMB10; experiment: Immunoblot of IFNG-induced immunoproteasome subunits; type: cell-based, human; conditions: MB135 cells; for suppression of IFNG-induced immunoproteasome subunit protein, pulsed protocol: 4 h doxycycline pulse, later IFNG 16 h; for suppression of IFNG-induced immunoproteasome subunit protein, continuous protocol: doxycycline 20 h, IFNG last 16 h
Procedure: as §4, §5, §1

Compound: CO/C1=C\C(C)=C\[C@@H](C)[C@@H](O)[C@@H](C)C/C(C)=C/C=C/[C@H](OC)[C@@H]([C@@H](C)[C@@H](O)[C@H](C)[C@@]2(O)C[C@@H](O)[C@H](C)[C@@H](C(C)C)O2)OC1=O [Bafilomycin]
- rescue of post-transcriptional suppression after a pulse of DUX4 [1]: did not rescue post-transcriptional suppression

Compound: CC(C)C[C@@H](C=O)NC(=O)[C@H](CC(C)C)NC(=O)[C@H](CC(C)C)NC(=O)OCc1ccccc1 [MG132] (Cbz-Leu-Leu-Leu-aldehyde)
- effect on IFNG-induced MHC-I and immunoproteasome protein in the absence of DUX4 [2]: MHC class I induction, but not HLA-E is blocked
- effect on IFNG-induced HLA-E protein (HLA-E): stable expression of HLA-E protein
- rescue of post-transcriptional suppression after a pulse of DUX4 [1]: did not rescue post-transcriptional suppression

Compound: iDUX4-F67A: DUX4 with phenylalanine to alanine mutation in first homeodomain preventing DNA binding, SEQ ID NOS: 6-7
- nascent protein synthesis by 35S labeling [3]: did not suppress protein translation; also recorded: no significant change
- IFNG-induced genes whose induction was suppressed more than 2-fold (percent) (ISG induction by IFNG): 70%
- IFNG-induced genes whose induction was suppressed more than 4-fold (percent) (ISG induction by IFNG): 41%
- suppression of IFNG induction of ISGs (IFIH1, ISG20, CXCL9, CD74) [4]: sufficient to block IFNG-induced ISG expression; also recorded: still suppressed ISG induction by IFNG
- suppression of IFNG induction of ISGs (IFIH1, ISG20, CXCL9, CD74) ([4]; listed as DUX4-F67A): fully suppresses the ISG response to IFNG
- suppression of IFNG-induced MHC class I protein, pulsed protocol ([5]; listed as DUX4(F67A)): protein levels were completely rescued
- suppression of IFNG-induced MHC class I protein, pulsed protocol ([5]; listed as DUX4-F67A): does not suppress MHC class I in the pulse protocol
- suppression of IFNG-induced MHC class I protein, pulsed protocol ([5]; listed as F67A mutant): does not suppress MHC class I in the pulsed protocol
- suppression of IFNG-induced MHC class I protein, continuous protocol ([5]; listed as DUX4(F67A)): suppressed IFNG-induced MHC-I and the immunoproteasome expression
- suppression of IFNG-induced MHC class I protein, continuous protocol ([5]; listed as DUX4-F67A): suppress the IFNG induction of MHC class I expression; also recorded: inhibits MHC class I proteins in only the continuous protocol
- induction of DUX4 target H3.X/Y proteins (H3.X/Y): does not induce expression of the DUX4-regulated H3.X/Y
- transcriptional activation of DUX4 target gene ZSCAN4 (ZSCAN4): did not activate ZSCAN4
- transcriptional activation of DUX4 target gene ZSCAN4 (ZSCAN4; listed as DUX4-F67A): prevents the transcriptional activation of DUX4 regulated genes
- suppression of IFNG-induced immunoproteasome subunit protein, pulsed protocol ([6]; listed as DUX4(F67A)): protein levels were completely rescued; also recorded: neither suppression of PSMB9 or altered 4EBP1 phosphorylation was observed
- suppression of IFNG-induced immunoproteasome subunit protein, pulsed protocol ([6]; listed as DUX4 F67A): does not inhibit at all in the pulsed protocol
- suppression of IFNG-induced immunoproteasome subunit protein, continuous protocol ([6]; listed as DUX4(F67A)): suppressed IFNG-induced MHC-I and the immunoproteasome expression
- suppression of IFNG-induced immunoproteasome subunit protein, continuous protocol ([6]; listed as DUX4 F67A): only partially inhibits the IFNG induction of PSMB9 and PSMB10 in the continuous protocol
